Test results taken from patent US8178506B2, “Oligomeric compounds and compositions for use in modulation of small non-coding RNAs” (Regulus Therapeutics Inc., priority 2003, dated 2012).

Key:
ob/ob mice = assay: ob/ob mice: plasma parameters, food consumption, marker gene mRNA; assay type: in vivo, mouse; conditions: ob/ob mice; for mRNA expression levels of the Glut4, aP2 and HSL marker genes: 25 mg/kg two times per week
Source text: Leptin is a hormone produced by fat cells that regulates appetite. Deficiencies in this hormone in both humans and non-human animals leads to obesity. ob/ob mice have a mutation in the leptin gene which results in obesity and hyperglycemia. As such, these mice are a useful model for the investigation of obesity and diabetes and treatments designed to treat these conditions. ob/ob mice have higher circulating levels of insulin and are less hyperglycemic than db/db mice, which harbor a mutation in the leptin receptor. In accordance with the present invention, the oligomeric compounds of the invention are tested in the ob/ob model of obesity and diabetes.
Seven-week old male C57B1/6J-Lep ob/ob mice (Jackson Laboratory, Bar Harbor, Me.) are fed a diet with a fat content of 10-15% and are subcutaneously injected with the oligomeric compounds of the invention or a control compound at a dose of 25 mg/kg two times per week for 4 weeks. Saline-injected animals, leptin wildtype littermates (i.e. lean littermates) and ob/ob mice fed a standard rodent diet serve as controls. After the treatment period, mice are sacrificed and target levels are evaluated in liver, brown adipose tissue (BAT) and white adipose tissue (WAT). RNA isolation and target RNA expression level quantitation are performed as described by other examples herein.
To assess the physiological effects resulting from modulation of target, the ob/ob mice are evaluated at the end of the treatment period for serum lipids, serum free fatty acids, serum cholesterol (CHOL), liver triglycerides, fat tissue triglycerides and liver enzyme levels. Hepatic steatosis, or clearing of lipids from the liver, is assessed by measuring the liver triglyceride content. Hepatic steatosis is assessed by routine histological analysis of frozen liver tissue sections stained with oil red O stain, which is commonly used to visualize lipid deposits, and counterstained with hematoxylin and eosin, to visualize nuclei and cytoplasm, respectively.
The effects of target modulation on glucose and insulin metabolism are evaluated in the ob/ob mice treated with the oligomeric compounds of the invention. Plasma glucose is measured at the start of the treatment and after 2 weeks and 4 weeks of treatment. Plasma insulin is similarly measured at the beginning of the treatment, and following at 2 weeks and at 4 weeks of treatment. Glucose and insulin tolerance tests are also administered in fed and fasted mice. Mice receive intraperitoneal injections of either glucose or insulin, and the blood glucose and insulin levels are measured before the insulin or glucose challenge and at 15, 20 or 30 minute intervals for up to 3 hours.
The ob/ob mice that receive treatment are evaluated at the end of the treatment period for the effects of target modulation on the expression of genes that participate in lipid metabolism, cholesterol biosynthesis, fatty acid oxidation, fatty acid storage, gluconeogenesis and glucose metabolism. These genes include, but are not limited to, HMG-CoA reductase, acetyl-CoA carboxylase 1 and acetyl-CoA carboxylase 2, camitine palmitoyltransferase I and glycogen phosphorylase, glucose-6-phosphatase and phosphoenolpyruvate carboxykinase 1, lipoprotein lipase and hormone sensitive lipase. mRNA levels in liver and white and brown adipose tissue are quantitated by real-time PCR as described in other examples herein, employing primer/probe sets that are generated using published sequences of each gene of interest.
As described herein, leptin-deficient (ob/ob) mice, leptin receptor-deficient (db/db) mice and diet-induced obesity (DIO) mice are used to model obesity and diabetes. In accordance with the present invention, oligomeric compounds targeting mir-143, mir-131 (also known as mir-9) and mir-203 were tested in the ob/ob and db/db models. […]

DIO mice = assay: Diet-induced obesity (DIO) mice; assay type: in vivo; conditions: for liver toxicity (plasma transaminase levels, weekly): 25 mg/kg s.c. twice weekly, 25 mg/kg
Protocol: As described, supra, the C57BL/6 mouse strain is reported to be susceptible to hyperlipidemia-induced atherosclerotic plaque formation, and when these mice are fed a high-fat diet, they develop diet-induced obesity (DIO). Accordingly, the DIO mouse model is useful for the investigation of obesity and development of agents designed to treat these conditions. In one embodiment of the present invention, oligomeric compounds targeting miRNAs were tested in the DIO model. Normal C57/BL6 male mice were fed a high fat diet (40% fat, 41% carbohydrate, 18% protein) for 12 weeks before the study began. DIO mice were then randomized by weight and insulin values. Initial body fat composition was determined by Dual X-ray Absorptiometry (DEXA) Scan. DIO mice were then subcutaneously injected with oligomeric compounds of the invention at a dose of 25 mg/kg, twice weekly. DIO mice were treated with oligomeric compounds ISIS Numbers 327901 and 340927 targeting mir-143, ISIS Numbers 327892 and 340926 targeting mir-131/mir-9, ISIS Numbers 327878 and ISIS Number 345349 targeting mir-203, and ISIS Numbers 327889 and 340925, targeting mir-23b. […] DEXA scans were also performed at weeks 0, 3 and 5 after treatment with the oligomeric compounds to assess the fat mass to lean mass ratio. The effects of target inhibition on levels of plasma glucose and insulin, liver transaminases, cholesterol and triglycerides, were also assessed weekly by tail bleed, and after the treatment period, mice were sacrificed and liver and kidney heart, as well as white adipose tissue (WAT) tissues collected. The mRNA expression levels of the Glut4, aP2, HSL and PPARγ marker genes are also assessed. […] Furthermore, some improvement in body composition (a reduction in body weight and fat mass) was observed.

[1] = 25 mg/kg s.c. two times per week, 6 weeks

Sequence | plasma glucose levels (fed) (ob/ob mice; [1]) | plasma glucose levels, fasted state (ob/ob mice; day 19) | liver toxicity (plasma transaminase levels, weekly) (DIO mice) | mRNA expression levels of the Glut4, aP2 and HSL marker genes (ob/ob mice) | plasma cholesterol levels (ob/ob mice; [1]) | plasma triglyceride levels (ob/ob mice; [1]) | insulin levels (DIO mice; two and four week time points, vs saline)
ACTTTCGGTTATCTAGCTTTA [ISIS 327892] (chemistry not given here) [uniform 2′-MOE PS; targets mir-131-2/mir-9] | reduced beginning at approximately four weeks after the start of treatment | significant reductions in plasma glucose levels | did not appear to cause liver toxicity |  |  |  | 
TGAGCTACAGTGCTTCATCTCA [ISIS 327901] (chemistry not given here) [uniform 2′-MOE PS; targets mir-143] |  |  | did not appear to cause liver toxicity | slightly reduced |  |  | 
TGAGCTACAGTGCTTCATCTCA [ISIS 340927] (chemistry not given here) [5-10-7 2′-MOE gapmer PS; targets mature mir-143] | generally slightly lower |  | did not cause significant increases in liver toxicity | slightly reduced | slightly decrease over time | generally slightly lower | effective at reducing insulin levels
